Consider 21 compounds from US10112907B2, “Substituted indazoles for treating tendon and/or ligament injuries” (NOVARTIS AG, priority 2016, dated 2018).

Usually EC50 stands for the concentration needed to bring the measured effect to its halfway point.

Test [1] concerns Tenomodulin (Tnmd) gene expression in rat tail tendon fascicles. The test can be described thus: Ex vivo assay, Tnmd mRNA in tendon fascicles (qPCR). Type of test: cell-based, Sprague Dawley rat. (In general: In qPCR the cycle at which signal appears reflects the starting amount.)
In test [2] the test system is collagen type I (Col1a2) gene expression in rat tail tendon fascicles. The test can be described thus: Ex vivo assay, Col1a2 mRNA in tendon fascicles (qPCR). Type of test: cell-based, Sprague Dawley rat.
For test [3], the system named is Scleraxis (Scx) gene transcriptional activation in TT-D6 Scx-luciferase (ScxL) cell line. The test is described as follows: SCX-LUC in vitro assay (Scx-luciferase reporter). It counts as cell-based. The note with it: Mus musculus. For orientation: A reporter such as luciferase makes a cellular process visible.
In test [4] the test system is Scleraxis (Scx) gene expression in rat tail tendon fascicles. The test can be described thus: Ex vivo assay, Scx mRNA in tendon fascicles (qPCR). Type of test: cell-based, Sprague Dawley rat.
Where [5] appears, read: 96 h, Table 3, four days, read-out: Ex vivo Tnmd (EC50 μM).
Where [6] appears, read: 96 h, Table 3, four days, read-out: Ex vivo Col1a2 (EC50 μM).
[7] abbreviates: 96 h, Table 3, four days, read-out: Scx-Luc (EC50 μM).
[8] abbreviates: 96 h, Table 3, four days, read-out: Ex vivo Scx (EC50 μM).
Where [9] appears, read: Table 1, read-out: Ex vivo Tnmd (EC50 uM).
The mark [10] stands for this setting: Table 1, read-out: Ex vivo Col1a2 (EC50 uM).
[11] abbreviates: Table 1, read-out: Ex vivo SCX (EC50 uM).
Where [12] appears, read: Table 1, read-out: Scx-Luc (EC50 uM).
[13] abbreviates: read-out: Ex vivo Tnmd (EC50 uM).
Setting [14] is: read-out: Ex vivo Col1a2 (EC50 uM).
The mark [15] stands for this setting: read-out: Ex vivo SCX (EC50 uM).

Read-outs that look alike come from different tables or passages of the source.

With `Cc1cc(S(=O)(=O)N[C@H]2C[C@](O)(C(F)(F)F)C2)ccc1-c1ccc2[nH]nc(N)c2c1Cl` [Example 37, 4-(3-amino-4-chloro-1H-indazol-5-yl)-N-((1s,3s)-3-hydroxy-3-(trifluoromethyl)cyclobutyl)-3-methylbenzenesulfonamide], the EC50 in test [1] (setting [5]) came to 1.69 µM; in test [2] (setting [6]), 1.82 µM; in test [3] (setting [7]), 0.227 µM; in test [4] (setting [8]), 0.996 µM.

As to `Cc1cc(S(=O)(=O)N2CCC(O)CC2)ccc1-c1ccc2[nH]nc(N)c2c1C` [Example 14, 1-((4-(3-amino-4-methyl-1H-indazol-5-yl)-3-methylphenyl)sulfonyl)piperidin-4-ol], the EC50 in test [1] (setting [5]) was 6.97 µM; in test [2] (setting [6]) it was 2.64 µM; in test [3] (setting [7]), 3.92 µM; in test [4] (setting [8]), 7.28 µM.

As for `Nc1n[nH]c2ccc(-c3ccc(S(=O)(=O)N[C@@H]4CCC[C@@H]4O)cc3Cl)c(Cl)c12` [Example 69, 4-(3-amino-4-chloro-1H-indazol-5-yl)-3-chloro-N-((1R,2S)-2-hydroxycyclopentyl)benzenesulfonamide], the EC50 turned out to be 3.84 µM in test [1] (setting [5]), 1.48 µM in test [2] (setting [6]), 0.148 µM in test [3] (setting [7]) and 1.05 µM in test [4] (setting [8]).

In the case of `C[C@@H](O)c1nc2cnc3[nH]ccc3c2n1[C@@H]1CCCOC1` [reference compound], the EC50 in test [1] (setting [9]) came out at 6.11 µM; in test [2] (setting [10]) it was 4.66 µM; in test [3] (read-out: Scx-Luc (EC50 uM)) it was 1.34 µM; in test [4] (setting [11]), 0.08 µM.

Turning to `COc1ccc(-c2nc3c(NCC4CCNCC4)c(Cl)cnc3[nH]2)c(F)c1` [reference compound], the EC50 in test [1] (setting [9]) was determined as 0.08 µM; in test [2] (setting [10]) it was 1.15 µM; in test [3] (setting [12]), 0.51 µM; in test [4] (setting [11]) it was 0.47 µM.

Regarding `CCC1(O)CC(NS(=O)(=O)c2ccc(-c3ccc4[nH]nc(N)c4c3C)c(C)c2)C1` (stereo not drawn) [Example 49, 4-(3-amino-4-methyl-1H-indazol-5-yl)-N-(3-ethyl-3-hydroxycyclobutyl)-3-methylbenzenesulfonamide], the EC50 in test [1] (setting [5]) turned out to be 2.78 µM; in test [2] (setting [6]) it was 2.23 µM; in test [3] (setting [7]), 0.852 µM; in test [4] (setting [8]), 3.04 µM.

`C1=C/COCc2cc(ccc2OCCN2CCCC2)Nc2nccc(n2)-c2cccc(c2)COC/1` [reference compound]: the EC50 in test [1] (setting [9]) was 6.71 µM; in test [2] (setting [10]) it was 3.11 µM; in test [3] (read-out: Scx-Luc (EC50 uM)), 1.06 µM; in test [4] (setting [11]), 3.32 µM.

On to `Cc1cc(S(=O)(=O)NC2CCOCC2)ccc1-c1ccc2[nH]nc(N)c2c1C` [Example 21, 4-(3-amino-4-methyl-1H-indazol-5-yl)-3-methyl-N-(tetrahydro-2H-pyran-4-yl)benzenesulfonamide], for which the 50% effective concentration (EC50) is 6.64 µM in test [1] (setting [5]), 5.32 µM in test [2] (setting [6]), 1.26 µM in test [3] (setting [7]) and 3.7 µM in test [4] (setting [8]).

For `Cc1c(-c2ccc(S(=O)(=O)N[C@H]3C[C@@H](O)C3)cc2Cl)ccc2[nH]nc(N)c12` [Example 34, 4-(3-amino-4-methyl-1H-indazol-5-yl)-3-chloro-N-((1s,3s)-3-hydroxycyclobutyl)benzenesulfonamide], the EC50 in test [1] (setting [5]) turned out to be 0.078 µM; in test [2] (setting [6]), 5.92 µM; in test [3] (setting [7]), 0.614 µM; in test [4] (setting [8]) it was 1.54 µM.

As for `Cc1cc(S(=O)(=O)NC2CCC(F)(F)CC2)ccc1-c1ccc2[nH]nc(N)c2c1C` [Example 43, 4-(3-amino-4-methyl-1H-indazol-5-yl)-N-(4,4-difluorocyclohexyl)-3-methylbenzenesulfonamide], the EC50 in test [1] (setting [5]) was determined as 4.87 µM; in test [2] (setting [6]), 3.45 µM; in test [3] (setting [7]) it was 0.696 µM; in test [4] (setting [8]), 3.37 µM.

For `Cc1cc(S(=O)(=O)N[C@@H]2CCC[C@@H]2O)ccc1-c1ccc2[nH]nc(N)c2c1C` [Example 18, 4-(3-amino-4-methyl-1H-indazol-5-yl)-N-((1R,2S)-2-hydroxycyclopentyl)-3-methylbenzenesulfonamide], the EC50 in test [1] (setting [5]) was found to be 1.06 µM; in test [2] (setting [6]), 2.53 µM; in test [3] (setting [7]), 0.468 µM; in test [4] (setting [8]) it was 2.52 µM.

As to `Cc1cc(S(=O)(=O)N2CC(F)(F)C2)ccc1-c1ccc2[nH]nc(N)c2c1C` [Example 78, 5-(4-((3,3-difluoroazetidin-1-yl)sulfonyl)-2-methylphenyl)-4-methyl-1H-indazol-3-amine], the EC50 in test [1] (setting [5]) turned out to be 1.89 µM; in test [2] (setting [6]) it was 1.16 µM; in test [3] (setting [7]) it was 2.1 µM; in test [4] (setting [8]), 4.57 µM.

With `O=C(Nc1nc2cccc(-c3ccc(CN4CCS(=O)(=O)CC4)cc3)n2n1)C1CC1` [reference compound], the EC50 was found to be 6.93 µM in test [1] (setting [13]), 5.01 µM in test [2] (setting [14]), 4.32 µM in test [3] (read-out: Scx-Luc (EC50 uM)) and 5.34 µM in test [4] (setting [15]).

Turning to `C[C@@H](O)c1nc2cnc3[nH]ccc3c2n1[C@H]1CCCOC1` [reference compound], the EC50 turned out to be 4.19 µM in test [1] (setting [9]), 4.32 µM in test [2] (setting [10]), 0.82 µM in test [3] (setting [12]) and 3.31 µM in test [4] (setting [11]).

Take `N#CC[C@H](C1CCCC1)n1cc(-c2ncnc3[nH]ccc23)cn1` [reference compound]: the EC50 in test [1] (setting [13]) was determined as 0.74 µM; in test [2] (setting [14]) it was 2.64 µM; in test [3] (read-out: Scx-Luc (EC50 uM)), 0.12 µM; in test [4] (setting [15]) it was 3.13 µM.

For `CC1(C)CN(C(=O)c2ccc(-c3cccc4nc(NC(=O)C5CC5)nn34)cc2)C1` [reference compound], the EC50 in test [1] (setting [9]) worked out at 3.69 µM; in test [2] (setting [10]) it was 3.62 µM; in test [3] (read-out: Scx-Luc (EC50 uM)) it was 1.42 µM; in test [4] (setting [11]), 3.56 µM.

For the compound `Cc1cc(S(=O)(=O)N2CC[C@@H](O)C2)ccc1-c1ccc2[nH]nc(N)c2c1Cl` [Example 7, (R)-1-((4-(3-amino-4-chloro-1H-indazol-5-yl)-3-methylphenyl)sulfonyl)pyrrolidin-3-ol], the EC50 is 0.463 µM in test [1] (setting [5]), 3.31 µM in test [2] (setting [6]), 2.02 µM in test [3] (setting [7]) and 5.35 µM in test [4] (setting [8]).

Take `Cc1cc(S(=O)(=O)N2CC[C@H](O)C2)ccc1-c1ccc2[nH]nc(N)c2c1C` [Example 5, (S)-1-((4-(3-amino-4-methyl-1H-indazol-5-yl)-3-methylphenyl)sulfonyl)pyrrolidin-3-ol]: the EC50 in test [1] (setting [5]) is 1.6 µM; in test [2] (setting [6]) it was 2.63 µM; in test [3] (setting [7]), 0.275 µM; in test [4] (setting [8]) it was 3.62 µM.

With `Cc1cc(S(=O)(=O)N[C@H]2C[C@@](C)(O)C2)ccc1-c1ccc2[nH]nc(N)c2c1C` [Example 40, 4-(3-amino-4-methyl-1H-indazol-5-yl)-N-((1s,3s)-3-hydroxy-3-methylcyclobutyl)-3-methylbenzenesulfonamide], the EC50 in test [1] (setting [5]) came to 2.92 µM; in test [2] (setting [6]), 1.82 µM; in test [3] (setting [7]), 0.988 µM; in test [4] (setting [8]) it was 2.69 µM.

Consider `C[C@@H](O)c1nc2cnc3[nH]ccc3c2n1[C@H]1CC[C@H](C#N)CC1` [reference compound], for which the EC50 in test [1] (setting [9]) worked out at 6.38 µM; in test [2] (setting [10]), 6.62 µM; in test [3] (read-out: Scx-Luc (EC50 uM)), 2.69 µM; in test [4] (setting [11]), 4.27 µM.

As to `Cc1cc(S(=O)(=O)NC2CC(O)(Cc3ccccc3)C2)ccc1-c1ccc2[nH]nc(N)c2c1C` (stereo not drawn) [Example 51, 4-(3-amino-4-methyl-1H-indazol-5-yl)-N-(3-benzyl-3-hydroxycyclobutyl)-3-methylbenzenesulfonamide], the EC50 in test [1] (setting [5]) amounted to 6.8 µM; in test [2] (setting [6]), 6.39 µM; in test [3] (setting [7]), 1.58 µM; in test [4] (setting [8]), 6.98 µM.
